Laboratory results as given in article PMC12566191, “Isolation and In Vitro Activity of Sesquiterpene Lactones from Eremanthus crotonoides as SARS-CoV-2 Protease Inhibitors and Cytotoxic Agents” (Molecules, 2025).
Values joined by “and” are separate entries in the source; they are usually repeats but may differ in a detail not shown here. Equal entries are not always repeated. “Also recorded” adds a separate entry of the source. Where two headings read alike, the source gives them in different places.

Tests used:
[1] = molecular target: Recombinant SARS-CoV-2 3CLpro (Severe acute respiratory syndrome coronavirus 2, UniProt P0DTD1); experiment: FRET enzymatic inhibition assay, 3CLpro; format: biochemical; conditions: for inhibition at 1000 µM: read-out: Maximum inhibition (%) 3CLpro
[2] = Cell viability, crystal violet (CV) assay, PC-3; format: cell-based; conditions: human
Experimental: (§1) The cytotoxicity of crude extract and isolated compounds were evaluated against the human tumor cell lines PC-3 (prostatic carcinoma cell) and HCT-116 (colorectal carcinoma cell). Cell maintenance was performed as described in the literature. The extract and isolated compounds were tested at the concentrations of 0.05 and 50 μg/mL and 0.01 and 10 μM, respectively. Saponin digitonin (100 µM), a very potent permeabilizer of cell membranes, was used as positive control to induce 0% cell viability after 48 h of treatment.
(§2) Cell viability was determined by MTT and crystal violet (CV) assays after 48 h of incubation. Absorbance was measured using an automated microplate reader at 540 nm with a reference wavelength of 670 nm. Results are expressed as percentages relative to untreated control cultures.

[3] = Cell viability, MTT assay, PC-3; format: cell-based, human; conditions: human
Experimental: as §1, §2

[4] = molecular target: Recombinant SARS-CoV-2 PLpro (Severe acute respiratory syndrome coronavirus 2, UniProt P0DTD1); experiment: FRET enzymatic inhibition assay, PLpro; format: biochemical
glioblastoma multiforme = test system: glioblastoma multiforme; design: method as in doi:10.1590/S0102-695X2012005000131; conditions: cited from earlier work
[5] = Cell viability, crystal violet (CV) assay, HCT-116; format: cell-based; conditions: human
Experimental: as §1, §2

[6] = test system: clinical isolate of S. aureus; design: method as in doi:10.1007/s43450-021-00176-z; conditions: cited from earlier work
S. aureus = test system: S. aureus; design: method as in doi:10.1007/s43450-021-00176-z; conditions: cited from earlier work
[7] = Cell viability, MTT assay, HCT-116; format: cell-based, human; conditions: human
Experimental: as §1, §2

[8] = test system: PC-3 (prostatic carcinoma cell); experiment: Cell viability, MTT assay, PC-3; format: cell-based, human; conditions: 10 µM (goyazensolide: ≤ 10 µM), 48 h, MTT and CV assays
Experimental: as §1, §2

[9] = test system: HCT-116 (colorectal carcinoma cell); experiment: Cell viability, MTT assay, HCT-116; format: cell-based, human; conditions: 10 µM (goyazensolide: ≤ 10 µM), 48 h, MTT and CV assays
Experimental: as §1, §2

[10] = maximum inhibition conc. 1,000 µM (highest concentration tested)
[11] = 125 µg/mL (101.7 µM), positive control
[12] = HCT-116 colorectal carcinoma cells

## C=C1C(=O)OC2C=C(CO)C3=CC(=O)C(C)(CC(OC(=O)C(C)=CC)C12)O3 (stereo not drawn) [Centratherin, centratherin]
[1]; Apparent IC50 3CLpro
  IC50: 165 µM
[1]
  inhibition at 1000 µM: 89.5 ± 0.97%
[2]
  viability at 48 h, 0.01 µM: 100 ± 3.6%
  viability at 48 h, 10 µM: 0%
[3]
  viability at 48 h, 0.01 µM: 100 ± 13.5%
  viability at 48 h, 10 µM: 0%
[4]; Apparent IC50 PLpro
  IC50: 12 µM and 11.9 µM
[4]; [10]
  Maximum inhibition (%) PLpro: 97%
[4]; read-out: Maximum inhibition (%) PLpro, maximum inhibition conc. 1,000 µM (highest concentration tested)
  inhibition at 1000 µM: 96.77 ± 0.3%
Glioblastoma multiforme
  Cytotoxic activity against glioblastoma multiforme: exhibited cytotoxic activity
  IC50 values against glioblastoma multiforme, compared with doxorubicin: comparable to the commercial anticancer drug doxorubicin
[5]
  viability at 48 h, 0.01 µM: 114 ± 5.6%
  viability at 48 h, 10 µM: 3.5 ± 9.1%
[6]
  Concentration inhibiting clinical isolate of S. aureus: 32 µg/mL
S. aureus
  Concentration with antibiofilm activity: 128 µg/mL
[7]
  viability at 48 h, 0.01 µM: 100 ± 9.6%
  viability at 48 h, 10 µM: 0%

## C[C@@H]1CC[C@@]2(OC1)O[C@H]1[C@@H](O)[C@H]3[C@@H]4CC[C@H]5C[C@@H](O[C@@H]6O[C@H](CO)[C@H](O[C@@H]7O[C@H](CO)[C@@H](O)[C@H](O[C@@H]8OC[C@@H](O)[C@H](O)[C@H]8O)[C@H]7O[C@@H]7O[C@H](CO)[C@H](O)[C@H](O[C@@H]8O[C@H](CO)[C@@H](O)[C@H](O)[C@H]8O)[C@H]7O)[C@H](O)[C@H]6O)[C@H](O)C[C@]5(C)[C@H]4CC[C@]3(C)[C@H]1[C@@H]2C [DGTN, digitonin, reference compound]
[2]; [11]
  viability at 48 h, 101.7 µM: 0%
[3]; [11]
  viability at 48 h, 101.7 µM: 0%
[5]; [11]
  viability at 48 h, 101.7 µM: 0%
[7]; [11]
  viability at 48 h, 101.7 µM: 0%

## C=C(C)C(=O)OC1CC2(C)OC(=CC2=O)C(CO)=CC2OC(=O)C(=C)C21 (stereo not drawn) [Goyazensolide, goyazensolide]
[1]; [10]
  Maximum inhibition (%) 3CLpro: 96%
  inhibition at 1000 µM: 96.14 ± 0.01%
[1]; read-out: Apparent IC50 3CLpro
  IC50: 71.1 µM and 71 µM
[2]; PC-3 prostatic carcinoma cells
  viability at 48 h, 0.01 µM: 89.5 ± 2.8%
  viability at 48 h, 10 µM: 91.4 ± 1.7%
[3]; PC-3 prostatic carcinoma cells
  viability at 48 h, 0.01 µM: 86.6 ± 4.7%
  viability at 48 h, 10 µM: 100 ± 18%
[8]
  Reduction of cell viability, PC-3: no noteworthy effects; also recorded: unable to decrease cell viability; also recorded: no such effect
[4]; maximum inhibition conc. 1,000 µM (highest concentration tested), read-out: Maximum inhibition (%) PLpro
  inhibition at 1000 µM: 80.7 ± 5.9%
[4]; read-out: Apparent IC50 PLpro
  IC50: 317 µM
[5]; [12]
  viability at 48 h, 0.01 µM: 113 ± 4%
  viability at 48 h, 10 µM: 92.1 ± 9%
[7]; [12]
  viability at 48 h, 0.01 µM: 99.6 ± 5.9%
  viability at 48 h, 10 µM: 100 ± 5.8%
[9]
  Reduction of cell viability, HCT-116: no noteworthy effects; also recorded: unable to decrease cell viability; also recorded: no such effect
